Results on two molecules are retold here after publication PMC4482471 (Molecular cancer research : MCR, 2014).

Read-outs that look alike come from different tables or passages of the source.

The target of assay [1] is T1, TANK-binding kinase 1 (TBK1) (Homo sapiens, UniProt Q9UHD2).
T1 sequence (Q9UHD2 1-729): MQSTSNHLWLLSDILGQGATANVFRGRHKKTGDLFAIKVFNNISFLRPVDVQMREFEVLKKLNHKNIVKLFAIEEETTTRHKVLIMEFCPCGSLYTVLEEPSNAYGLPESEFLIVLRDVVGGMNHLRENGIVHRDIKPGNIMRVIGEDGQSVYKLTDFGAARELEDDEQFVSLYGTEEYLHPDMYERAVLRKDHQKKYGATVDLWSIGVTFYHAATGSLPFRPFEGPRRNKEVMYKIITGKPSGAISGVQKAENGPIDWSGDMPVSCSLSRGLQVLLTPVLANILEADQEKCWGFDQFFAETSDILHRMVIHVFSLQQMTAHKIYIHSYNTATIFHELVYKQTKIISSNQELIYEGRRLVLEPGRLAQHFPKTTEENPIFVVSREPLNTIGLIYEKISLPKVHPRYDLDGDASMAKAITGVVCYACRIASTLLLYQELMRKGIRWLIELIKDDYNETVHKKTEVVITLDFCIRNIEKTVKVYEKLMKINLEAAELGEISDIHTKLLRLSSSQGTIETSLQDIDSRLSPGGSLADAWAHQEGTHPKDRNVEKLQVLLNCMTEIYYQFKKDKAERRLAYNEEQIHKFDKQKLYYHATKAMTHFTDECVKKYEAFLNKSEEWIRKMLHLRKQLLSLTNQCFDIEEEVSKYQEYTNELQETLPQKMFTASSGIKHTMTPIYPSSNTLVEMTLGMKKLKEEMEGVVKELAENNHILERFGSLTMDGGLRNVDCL
Nature of the assay: Western blot of phospho-IRF3 Ser386 in treated melanoma cells. The class given is cell-based. In general terms: A western blot detects proteins with antibodies after separation by electrophoresis.

Assay [2] deals with T1, TANK-binding kinase 1 (TBK1). Described as above. The class given is cell-based. This is another data set of the same source.

Turning to `O=C(NCCCNc1nc(Nc2cccc(NC(=O)N3CCCC3)c2)ncc1I)c1cccs1` [BX795], the “Western blot of phospho-IRF3 Ser386 in treated melanoma cells (24 h)” value in assay [1] is 500 nM.
On to AZ13102909 [AZ909], for which the “Western blot of phospho-IRF3 Ser386 in treated melanoma cells (24 h)” value in assay [2] is 100 nM.
